From patent publication US7148009B2, “Cancer drug screen based on cell cycle uncoupling” (The Johns Hopkins University, priority 1996, dated 2006)

What was measured:
[1] = test system: HCT116 cells with (+/+) p21 genes; experiment: Apoptosis after drug treatment (phase contrast, H33258 staining, TUNEL), parental cells; assay type: cell-based, human; conditions: for cell fate (apoptosis) by phase contrast microscopy and H33258 staining: etoposide 5 ug/ml, camptothecan 0.1 ug/ml, time course
Method: (§1) HCT116 cells with (+/+) or without (−/−) p21 genes were generated by homologous recombination. Logarithmically-growing cells in McCoy's 5A medium with 10% fetal calf serum were treated with Adriamycin (0.2 ug/ml) for 90 hours. In FIG. 1b, the adherent cells were harvested by trypsinization and combined with cells floating in the media. After washing with Hanks Buffered Saline (HBS; Life Technologies), cells were resuspended in 40 ul HBS and added to 360 ul of a solution containing 0.7% NP-40, 4.7% formaldehyde and 11 ug/ml H133258 in phosphate buffered saline (PBS). Cells were then viewed under UV excitation and photographed with a Nikon Labophot microscope. In FIG. 1c, adherent cells were fixed in 1% formaldehyde, then incubated in the presence of exogenous terminal transferase and biotin-11-dUTP as previously described^7. Labeled cells were detected by immunoperoxidase staining (Vector).
(§2) Cells were grown, fixed, and stained as described in Example 1. Irradiation was delivered at 1 Gy/minute using a ^137Cs source. Apoptotic cells were recognized as condensed, punctate nuclei (examples in FIG. 1d) or ghosts with faintly stained, degrading nuclei. At least 200 cells were counted for each time point, and the experiment was repeated with results virtually identical to those shown. The error bars represent the Poisson standard deviation determined by taking the square root of counted events and converting it to percent abundance. All counting was done in a blinded fashion. The (+/−) cells contained one normal p21 allele and one allele deleted by homologous recombination^5.

[2] = test system: HCT116 cells without (−/−) p21 genes; experiment: Apoptosis after drug treatment (phase contrast, H33258 staining, TUNEL), p21-deficient cells; assay type: cell-based, human
Method: as §1
as §2, with “At least 200 cells were counted for each time point, and the experiment was repeated with results virtually identical to those shown.” left out

[3] = test system: HCT116 (+/−) cells, one normal p21 allele and one deleted; experiment: Apoptosis after drug treatment, heterozygous cells; assay type: cell-based, human; conditions: Adriamycin 0.2 ug/ml, etoposide 5 ug/ml, camptothecan 0.1 ug/ml
Method: as §1, §2

HCT116 p21+/+ cells = experiment: Cell cycle analysis by flow cytometry, parental cells; conditions: Adriamycin 0.2 ug/ml
HCT116 p21−/− cells = experiment: Cell cycle analysis by flow cytometry, p21-deficient cells; conditions: Adriamycin 0.2 ug/ml
[4] = p21−/− cells, Adriamycin 0.2 ug/ml, 90 hours
[5] = longer treatments (beyond 30 hours)

Row | Structure (SMILES) | cell morphology, phase contrast microscopy ([1]; Adriamycin 0.2 ug/ml, 90 hours) | nuclear morphology after H33258 staining ([1]; Adriamycin 0.2 ug/ml, 90 hours) | response in a second, independently isolated p21−/− clone ([2]; Adriamycin 0.2 ug/ml, time course of apoptosis) | TUNEL staining of DNA breaks characteristic of apoptosis [2, 4] | cell morphology, phase contrast microscopy [2, 4] | nuclear morphology after H33258 staining [2, 4] | kinetics of apoptosis compared with parental cells [3] | cell cycle distribution by flow cytometry (HCT116 p21+/+ cells; 30 hours of exposure) | flow cytometry profile (HCT116 p21+/+ cells; [5]) | cell cycle distribution by flow cytometry (HCT116 p21−/− cells; 30 hours of exposure) | DNA content by flow cytometry (HCT116 p21−/− cells; [5]) | cell fate (apoptosis) by phase contrast microscopy and H33258 staining [1] | cell fate (apoptosis) by phase contrast microscopy and H33258 staining ([2]; p21−/− cells, etoposide 5 ug/ml, time course)
1 | COc1cccc2c1C(=O)c1c(O)c3c(c(O)c1C2=O)C[C@@](O)(C(=O)CO)C[C@@H]3O[C@H]1C[C@H](N)[C@H](O)[C@H](C)O1 [Adriamycin] | remained attached to the plate and appeared morphologically normal | homogeneous and round | identical | stained intensely by TUNEL | shrank, rounded, and detached from the dish, suggesting apoptosis | classic condensed and punctate nuclear morphology | behaved similarly to the parental cells | blocked in G1 and G2 phases, with few cells in S | remained largely unchanged | a nearly pure population of G2-arrested cells was observed | began to accumulate DNA in excess of 4C, then died |  | 
2 | CC[C@@]1(O)C(=O)OCc2c1cc1n(c2=O)Cc2cc3ccccc3nc2-1 [camptothecan] |  |  |  |  |  |  | revealed a heterozygote effect |  |  |  |  | eventually underwent apoptosis, but this was significantly delayed compared to p21-deficient cells | 
3 | COc1cc([C@@H]2c3cc4c(cc3[C@@H](O[C@@H]3O[C@@H]5CO[C@@H](C)O[C@H]5[C@H](O)[C@H]3O)[C@H]3COC(=O)[C@H]23)OCO4)cc(OC)c1O [etoposide] |  |  |  |  |  |  | behaved similarly to the parental cells |  |  |  |  | remained healthy | died
